Experimental data published in patent US6653303B1, “Cycloalkyl, lactam, lactone and related compounds, pharmaceutical compositions comprising same, and methods for inhibiting β-amyloid peptide release and/or its synthesis by use of such compounds” (Athena Neurosciences, Inc., priority 1996, dated 2003).

melting point	Structure (SMILES)
236 to 239 °C	CN1C(=O)C(NC(=O)Cc2cc(F)cc(F)c2)N=C(c2ccccc2)c2ccccc21 (centres unmarked)
155 to 158 °C	CCN1C(=O)C(NC(=O)[C@H](C)NC(=O)Cc2cc(F)cc(F)c2)N=C(c2ccccc2)c2ccccc21 (some centres unmarked)
128 to 129 °C	C[C@H](NC(=O)C(=O)c1cc(F)cc(F)c1)C(=O)NC1N=C(c2ccccc2)c2ccccc2N(C)C1=O (some centres unmarked)
205 to 206 °C	CCC(=S)N[C@@H](C)C(=O)NC1N=C(c2ccccc2)c2ccccc2N(C)C1=O (some centres unmarked)
228 to 229 °C	CC(C)[C@H](NC(=O)Cc1cc(F)cc(F)c1)C(=O)NC1N=C(c2ccccc2)c2ccccc2N(C)C1=O (some centres unmarked)
221 to 222 °C	CN1C(=O)C(NC(=O)[C@@H](NC(=O)Cc2cc(F)cc(F)c2)C(C)(C)C)N=C(c2ccccc2)c2ccccc21 (some centres unmarked)
203 to 205 °C	C[C@H](NC(=O)Cc1cc(F)cc(F)c1)C(=O)NC1N=C(c2ccccc2)c2ccccc2N(CC2CC2)C1=O (some centres unmarked)
199 °C	CC(Nc1ccc(Cl)c(Cl)c1)C(=O)NC1CCCNC(=O)C1 (racemic) [Example 5-31, 3-(N′-(3,4-Dichlorophenyl)-D,L-alaninyl)amino-ε-caprolactam]
255 to 256 °C	C[C@H](NC(=O)C(O)c1cc(F)cc(F)c1)C(=O)NC1C(=O)N(C)c2ccccc2N(c2ccccc2)C1=O (single isomer, unassigned)
240 to 241 °C	C[C@H](NC(=O)C(O)c1cc(F)cc(F)c1)C(=O)NC1N=C(c2ccccc2)c2ccccc2N(C)C1=O (single isomer, unassigned)
119 to 120 °C	C[C@H](NC(=O)C(F)c1cc(F)cc(F)c1)C(=O)NC1N=C(c2ccccc2)c2ccccc2N(C)C1=O (single isomer, unassigned)
200 to 205 °C	C[C@H](NC(=O)Cc1cc(F)cc(F)c1)C(=O)NC1C(=O)NC(c2ccccc2)c2ccccc21 (single isomer, unassigned) [Example 5-10, 4-(N′-(3,5-Difluorophenylacetyl)-L-alaninyl)amino-1-phenyl-1,2,3,4tetrahydroisoquinolin-3-one]
195 to 200 °C	C[C@H](NC(=O)Cc1cc(F)cc(F)c1)C(=O)NC1C(=O)NCc2cc(F)ccc21 (single isomer, unassigned) [Example 5-12, 4(N′-(3,5-Difluorophenylacetyl)-L-alaninyl)amino-7-fluoro-1,2,3,4tetrahydroisoquinolin-3-one]
196 to 199 °C	C[C@H](NC(=O)Cc1cc(F)cc(F)c1)C(=O)NC1Cc2ccccc2N(Cc2ccccc2)C1=O (stereo partly drawn) [Example 5-6, 1-Benzyl-3-(N′-(3,5-difluorophenylacetyl)-L-alaninyl)amino-1,2,3,4-tetrahydroquinolin-2-one]
243 to 244 °C	C[C@H](NC(=O)Cc1cc(F)cc(F)c1)C(=O)NC1C(=O)NCc2ccccc21 (stereo partly drawn) [Example 5-7, 4-(N′-(3,5-Difluorophenylacetyl)-L-alaninyl)amino-1,2,3,4-tetrahydroisoquinolin-3-one]
144 to 145 °C	C[C@H](NC(=O)Cc1cc(F)cc(F)c1)C(=O)NC1C(=O)N(Cc2ccccc2)Cc2ccccc21 (stereo partly drawn) [Example 5-8, 4-(N′-(3,5-Difluorophenylacetyl)-L-alaninyl)amino-2-benzyl-1,2,3,4-tetrahydroisoquinolin-3-one]
205 to 206 °C	CC1NC(=O)C(NC(=O)[C@H](C)NC(=O)Cc2cc(F)cc(F)c2)c2ccccc21 (stereo partly drawn) [Example 5-9, 4-(N′-(3,5-Difluorophenylacetyl)-L-alaninyl)amino-1-methyl-1,2,3,4-tetrahydroisoquinolin-3-one]
75 to 76 °C	C[C@H](NC(=O)Cc1cc(F)cc(F)c1)C(=O)NC1C(=O)N(CCc2ccccc2)Cc2ccccc21 (stereo partly drawn) [Example 5-13, 4-(N′-(3,5-Difluorophenylacetyl)-L-alaninyl)amino-2-phenethyl-1,2,3,4-tetrahydroisoquinolin-3-one]
174 to 175 °C	C[C@H](NC(=O)Cc1cc(F)cc(F)c1)C(=O)NC1C(=O)N(C)Cc2ccccc21 (stereo partly drawn) [Example 5-14, 4-(N′-(3,5-Difluorophenylacetyl)-L-alaninyl)amino-2-methyl-1,2,3,4-tetrahydroisoquinolin-3-one]
> 240 °C (dec.)	C[C@H](NC(=O)Cc1cc(F)cc(F)c1)C(=O)NC1C(=O)NCc2cc(-c3ccccc3)ccc21 (stereo partly drawn) [Example 5-16, 4-(N′-(3,5-Difluorophenylacetyl)-L-alaninyl)amino-7-phenyl-1,2,3,4-tetrahydroisoquinolin-3-one]
200 to 202 °C	C[C@H](NC(=O)Cc1ccccc1)C(=O)NC1CCCNC(=O)C1 (stereo partly drawn) [Example 5-18, 3-(N′-(Phenylacetyl)-L-alaninyl)amino-ε-caprolactam]

melting point	Structure (SMILES)
> 220 °C	C[C@H](NC(=O)Cc1cc(F)cc(F)c1)C(=O)NC1CCCCCNC(=O)C1 (stereo partly drawn) [Example 5-33, 3-(N′-(3,5-Difluorophenylacetyl)-L-alaninyl)amino-8-octanelactam]
159 to 166 °C	C[C@H](NC(=O)Cc1cc(F)cc(F)c1)C(=O)NC1C(=O)NCc2cc(Cc3ccccc3)ccc21 (stereo partly drawn) [Example 5-34, 4-(N′-(3,5-Difluorophenylacetyl)-L-alaninyl)amino-7-benzyl-1,2,3,4-tetrahydroisoquinolin-3-one]
106 to 107 °C	C[C@H](NC(=O)Cc1cc(F)cc(F)c1)C(=O)NC1C(=O)NC(Cc2ccccc2)c2ccccc21 (stereo partly drawn) [Example 5-35, 4-(N′-(3,5-Difluorophenylacetyl)-L-alaninyl)amino-1-benzyl-1,2,3,4-tetrahydroisoquinolin-3-one]
100 °C	C[C@H](NC(=O)Cc1cc(F)cc(F)c1)C(=O)NC1C(=O)NC(c2ccccn2)c2ccccc21 (stereo partly drawn) [Example 5-37, 4-(N′-(3,5-Difluorophenylacetyl)-L-alaninyl)amino-1-(pyrid-2-yl)-1,2,3,4-tetrahydroisoquinolin-3-one]
100 to 120 °C	C[C@H](NC(=O)Cc1cc(F)cc(F)c1)C(=O)NC1C(=O)NC(c2cccnc2)c2ccccc21 (stereo partly drawn) [Example 5-38, 4-(N′-(3,5-Difluorophenylacetyl)-L-alaninyl)amino-1-(pyrid-3-yl)-1,2,3,4-tetrahydroisoquinolin-3-one]
100 °C	C[C@H](NC(=O)Cc1cc(F)cc(F)c1)C(=O)NC1C(=O)NC(c2ccncc2)c2ccccc21 (stereo partly drawn) [Example 5-39, 4-(N′-(3,5-Difluorophenylacetyl)-L-alaninyl)amino-1-(pyrid-4-yl)-1,2,3,4-tetrahydroisoquinolin-3-one]
115 to 119 °C	CC1CC(NC(=O)[C@H](C)NC(=O)Cc2cc(F)cc(F)c2)C(=O)N(C)c2ccccc21 (stereo partly drawn) [Example 6-8, 3-(N′-(3,5-Difluorophenylacetyl)-L-alaninyl)amino-1,5-dimethyl-1,3,4,5-tetrahydro-2H-1-benzazepin-2-one]
185 to 187 °C	CC1CC(NC(=O)Cc2cc(F)cc(F)c2)C(=O)N(C)c2ccccc21 (centres unmarked) [Example 6-9, 3-(3,5-Difluorophenylacetyl)amino-1,5-dimethyl-1,3,4,5-tetrahydro-2H-1-benzazepin-2-one]
110 to 114 °C	C[C@H](NC(=O)Cc1cc(F)cc(F)c1)C(=O)N[C@H]1COc2ccccc2N(C)C1=O [Example 6-10, 3-(S)-(N′-(3,5-Difluorophenylacetyl)-L-alaninyl)amino-1-methyl-5-oxa-1,3,4,5-tetrahydro-2H-1-benzazepin-2-one]
188 to 191 °C	CCN1C(=O)[C@@H](NC(=O)[C@H](C)NC(=O)Cc2cc(F)cc(F)c2)COc2ccccc21 [Example 6-11, 3-(S)-(N′-(3,5-Difluorophenylacetyl)-L-alaninyl)amino-1-ethyl-5-oxa-1,3,4,5-tetrahydro-2H-1-benzazepin-2-one]
156 to 159 °C	C[C@H](NC(=O)Cc1cc(F)cc(F)c1)C(=O)N[C@@H]1CSc2ccccc2N(C)C1=O [Example 6-12, 3-(S)-(N′-(3,5-Difluorophenylacetyl)-L-alaninyl)amino-1-methyl-5-thia-1,3,4,5-tetrahydro-2H-1-benzazepin-2-one]
232 to 233 °C	CC(C)N1C(=O)C(NC(=O)[C@H](C)NC(=O)Cc2cc(F)cc(F)c2)C(=O)N(C(C)C)c2ccccc21 [Example 8-146, 3-[N′-(3,5-Difluorophenylacetyl)-L-alaninyl]amino-2,4-dioxo-1,5-bis-(1-methylethyl)-2,3,4,5-tetrahydro-1H-1,5-benzodiazepine]
206 to 207 °C	C[C@H](NC(=O)Cc1cc(F)cc(F)c1)C(=O)NC1C(=O)N(C)c2ccccc2N(C)C1=O [Example 8-150, 3-[N′-(3,5-Difluorophenylacetyl)-L-alaninyl]amino-2,4-dioxo-1,5-bis-methyl-2,3,4,5-tetrahydro-1H-1,5-benzodiazepine]
197 to 198 °C	CC(C)CN1C(=O)C(NC(=O)[C@H](C)NC(=O)Cc2cc(F)cc(F)c2)C(=O)N(CC(C)C)c2ccccc21 [Example 8-152, 3-[N′-(3,5-Difluorophenylacetyl)-L-alaninyl]amino-2,4-dioxo-1,5-bis-(2-methylpropyl)-2,3,4,5-tetrahydro-1H-1,5-benzodiazepine]
119 to 129 °C	C[C@H](NC(=O)C(O)C1CCCC1)C(=O)NC1C(=O)N(CC(C)(C)C)c2ccccc2N(CC(C)(C)C)C1=O (stereo partly drawn) [Example 8-162, 3-[N′-(Cyclopentyl-α-hydroxyacetyl)-L-alaninyl]amino-2,4-dioxo-1,5-bis-(2,2-dimethylpropyl)-2,3,4,5-tetrahydro-1H-1,5-benzodiazepine]
93 to 95 °C	CCOC(=O)[C@H](C)NC(=O)Cc1cc(F)cc(F)c1 [Example B64, N-[(3,5-Difluorophenyl)acetyl]alanine Ethyl Ester]
92 to 93 °C	CC(C)COC(=O)[C@H](C)NC(=O)CC1CCCCC1 [Example B70, N-(Cyclohexylacetyl)-L-alanine iso-Butyl Ester]
62 to 64 °C	CC(C)COC(=O)[C@H](C)NC(=O)CC1CCCC1 [Example B71, N-(Cyclopentylacetyl)-L-alanine iso-Butyl Ester]
49 to 51 °C	CC(C)COC(=O)[C@H](C)NC(=O)CC1=CCCCC1 [Example B72, N-[(Cyclohex-1-enyl)acetyl]-L-alanine iso-Butyl Ester]
83 to 86 °C	COC(=O)[C@@H](NC(=O)CC1CCCC1)c1ccccc1 [Example B77, N-(Cyclopentylacetyl)-L-phenylglycine Methyl Ester]
